In ChEMBL document CHEMBL1221187, “Histone deacetylase inhibitors reverse gene silencing in Friedreich's ataxia” (Nat Chem Biol, 2006):
Calls of active or inactive are those of the source. The rule behind the calls is not given here.

What was measured:
Histone deacetylase = experiment: Inhibition of HDAC in human HeLa cell extract by fluorescence plate reader assay; format: cell-free
GM15850 [1] = experiment: Increase in FXN mRNA expression in human GM15850 cells at 5 uM after 96 hrs by qRT-PCR analysis relative to control; format: functional
[2] = Cytotoxicity against human GM15850 cells at 5 uM after 96 hrs by trypan blue exclusion assay; format: cell-based; conditions: gm15850, 96 h
GM15850 [3] = experiment: Increase in FXN mRNA expression in human GM15850 cells at 5 uM after 12 hrs by qRT-PCR analysis relative to control; format: functional
[4] = Cytotoxicity against human GM15850 cells at 5 uM after 12 hrs by trypan blue exclusion assay; format: cell-based; conditions: gm15850, 12 h
GM15850 [5] = experiment: Increase in frataxin protein level in human GM15850 cells at 5 uM after 4 days by SDS-PAGE relative to control; format: functional
Lymphocyte [6] = experiment: Increase in FXN mRNA expression in lymphocytes isolated from patient with Friedreich's ataxia at 2.5 uM after 48 hrs by qRT-PCR analysis; format: functional, Homo sapiens
Lymphocyte [7] = experiment: Effect on FXN mRNA expression in healthy human lymphocytes at 2.5 uM after 48 hrs by qRT-PCR analysis; format: functional, cell-based
[8] = Cytotoxicity against lymphocytes isolated from patient with Friedreich's ataxia at 2.5 to 5 uM after 48 hrs by trypan blue exclusion assay; format: cell-based; conditions: human, lymphocyte
Lymphocyte [9] = experiment: Increase in FXN mRNA expression in lymphocytes isolated from patient with Friedreich's ataxia at 5 uM after 48 hrs by qRT-PCR analysis; format: functional, Homo sapiens
Lymphocyte [10] = experiment: Increase in FXN mRNA expression in lymphocytes isolated from patient with Friedreich's ataxia at 5 uM after 48 hrs by qRT-PCR analysis relative to control; format: functional, Homo sapiens
Lymphocyte [11] = experiment: Increase in FXN mRNA expression in healthy human lymphocytes at 5 uM after 48 hrs by qRT-PCR analysis; format: functional
[12] = target: T1, Histone deacetylase (Homo sapiens) (UniProt Q13547+O15379+Q9UBN7+Q92769+Q9UQL6+Q8WUI4+Q9BY41+Q96DB2+P56524+Q9UKV0+Q969S8); experiment: Inhibition of HDAC in human GM15850 cells assessed as increase in total acetylated histone level at 400 uM after 12 hrs by Western blot analysis; format: cell-based
[13] = Decrease in FXN mRNA expression in human GM15850 cells at 5 uM after 12 hrs by qRT-PCR analysis; format: functional, cell-based
GM15850 [14] = experiment: Effect on FXN mRNA expression in human GM15850 cells at 5 uM after 12 hrs by qRT-PCR analysis; format: functional, cell-based
Lymphocyte [15] = experiment: Increase in FXN mRNA expression in lymphocytes isolated from patient with Friedreich's ataxia at 10 uM after 48 hrs by qRT-PCR analysis; format: functional, cell-based; conditions: Homo sapiens
Lymphocyte [16] = experiment: Increase in FXN mRNA expression in lymphocytes isolated from patient with Friedreich's ataxia at 2.5 to 7.5 uM after 48 hrs by qRT-PCR analysis; format: functional, cell-based; conditions: Homo sapiens
GM15850 [17] = experiment: Increase in frataxin protein level in human GM15850 cells at 2.5 uM after 4 days by SDS-PAGE relative to control; format: functional
Lymphocyte [18] = experiment: Increase in FXN mRNA expression in lymphocytes isolated from patient with Friedreich's ataxia at 5 uM after 48 hrs by qRT-PCR analysis relative to mRNA level in healthy human lymphocytes; format: functional
Lymphocyte [19] = experiment: Increase in FXN mRNA expression in lymphocytes isolated from patient with Friedreich's ataxia at 10 uM after 48 hrs by qRT-PCR analysis relative to mRNA level in healthy human lymphocytes; format: functional
[20] = target: T1, Histone deacetylase (Homo sapiens); experiment: Inhibition of HDAC in human GM15850 cells assessed as increase in histone H3 lysine 14 acetylation of FXN gene at 5 uM after 96 hrs by chromatin immunoprecipitation assay; format: cell-based
[21] = target: T1, Histone deacetylase (Homo sapiens); experiment: Inhibition of HDAC in human GM15850 cells assessed as increase in histone H4 lysine 5 acetylation of FXN gene at 5 uM after 96 hrs by chromatin immunoprecipitation assay; format: cell-based
[22] = target: T1, Histone deacetylase (Homo sapiens); experiment: Inhibition of HDAC in human GM15850 cells assessed as increase in histone H4 lysine 12 acetylation of FXN gene at 5 uM after 96 hrs by chromatin immunoprecipitation assay; format: cell-based
[23] = target: T1, Histone deacetylase (Homo sapiens); experiment: Inhibition of HDAC in human GM15850 cells assessed as increase in histone H3 lysine 9 acetylation of FXN gene at 5 uM after 96 hrs by chromatin immunoprecipitation assay; format: cell-based
[24] = target: T1, Histone deacetylase (Homo sapiens); experiment: Inhibition of HDAC in human GM15850 cells assessed as increase in histone H4 lysine 8 acetylation of FXN gene at 5 uM after 96 hrs by chromatin immunoprecipitation assay; format: cell-based
[25] = target: T1, Histone deacetylase (Homo sapiens); experiment: Inhibition of HDAC in human GM15850 cells assessed as increase in histone H4 lysine 16 acetylation of FXN gene at 5 uM after 96 hrs by chromatin immunoprecipitation assay; format: cell-based
GM15850 [26] = experiment: Increase in FXN mRNA expression in human GM15850 cells at 10 uM after 96 hrs by qRT-PCR analysis relative to control; format: functional

Row | SMILES | IC50 (Histone deacetylase) | fold change (FC) (GM15850 [1]) | Activity [2] | further results
1 | COc1ccc(NC(=O)CCCCCC(=O)Nc2ccccc2)c(OC)c1 | 387 µM | 1.5 | Non-toxic | –
2 | Nc1cccc(NC(=O)CCCCCC(=O)Nc2ccccc2)c1 | 500 µM | 1.5 | Non-toxic | –
3 | O=C(CCCCCC(=O)Nc1ccccn1)Nc1ccccc1 | 140 µM | 2.6 | Non-toxic | –
4 | COc1ccccc1NC(=O)CCCCCC(=O)Nc1ccccc1 | 54 µM | 2.3 | Non-toxic | –
5 | Nc1ccc(NC(=O)CCCCCCC(=O)Nc2ccccc2)cc1 | 186 µM | 2 | Non-toxic | –
6 | Nc1ccccc1NC(=O)CCCCCCC(=O)Nc1ccccc1 | 87 µM | 1.4 | Non-toxic | fold change (FC) (GM15850 [3]): 2; Activity [4]: Non-toxic; fold change (FC) (GM15850 [5]): 3; Activity (Lymphocyte [6]): 33%; Activity (Lymphocyte [7]): inactive; Activity [8]: Non-toxic; Activity (Lymphocyte [9]): 80%; fold change (FC) (Lymphocyte [10]): 1.8; Activity (Lymphocyte [11]): inactive
7 | COc1ccccc1NC(=O)CCCCCCC(=O)Nc1ccccc1 | 470 µM | 1.8 | Non-toxic | –
8 | CCCC(CCC)C(=O)O [VALPROIC ACID] | – | – | Non-toxic | inhibition [12]: Active
9 | O=C(CCCCCCC(=O)NO)NO [SUBEROHYDROXAMIC ACID] | – | – | Non-toxic | inhibition [13]: 50%
10 | O=C(CCCCCCC(=O)Nc1ccccc1)NO [VORINOSTAT] | – | – | Toxic | Activity (GM15850 [14]): inactive
11 | O=C(CCCCCCC(=O)Nc1ccccn1)Nc1ccccc1 | 99 µM | 2 | Non-toxic | Activity (Lymphocyte [15]): inactive
12 | Nc1ccc(NC(=O)CCCCCC(=O)Nc2ccccc2)cc1 | 123 µM | 2.6 | Non-toxic | Activity (Lymphocyte [15]): inactive
13 | Nc1ccccc1NC(=O)CCCCC(=O)Nc1ccccc1 | 238 µM | 1.4 | Non-toxic | –
14 | COc1cccc(NC(=O)CCCCCC(=O)Nc2ccccc2)c1 | > 1 µM | 1.8 | Non-toxic | –
15 | Nc1ccccc1NC(=O)CCCCCC(=O)Nc1ccccc1 | 78 µM | 2.5 | Non-toxic | Activity (Lymphocyte [16]): Active; fold change (FC) (GM15850 [17]): 3; Activity (Lymphocyte [6]): 33%; Activity (Lymphocyte [7]): inactive; Activity [8]: Non-toxic; Activity (Lymphocyte [9]): 130%; fold change (FC) (Lymphocyte [10]): 2.3; Activity (Lymphocyte [11]): 38%; Activity (Lymphocyte [18]): 80%; Activity (Lymphocyte [19]): 160%; Activity [20]: Active; Activity [21]: Active; Activity [22]: Active; Activity [23]: inactive; Activity [24]: inactive; Activity [25]: inactive
16 | Nc1ccccc1NC(=O)CCCCCC(=O)Nc1ccccn1 | 91 µM | 2.4 | Non-toxic | Activity (Lymphocyte [15]): Active
17 | Nc1ccccc1NC(=O)CCCCCC(=O)Nc1ccccc1N | 14 µM | 3.1 | Non-toxic | fold change (FC) (GM15850 [26]): 3.5; Activity (Lymphocyte [15]): Active
18 | CC(/C=C/C(=O)NO)=C\[C@@H](C)C(=O)c1ccc(N(C)C)cc1 [TRICHOSTATIN] | – | – | Toxic | –
19 | O=C(CCCCCC(=O)Nc1cnc2ccccc2c1)Nc1ccccc1 | 84 µM | 2.5 | Non-toxic | –
20 | O=C(CCCCCC(=O)Nc1cccc2cccnc12)Nc1ccccc1 | 17 µM | 3 | Non-toxic | –
21 | Nc1cccc(NC(=O)CCCCCCC(=O)Nc2ccccc2)c1 | 85 µM | 2.1 | Non-toxic | –
22 | COc1ccc(NC(=O)CCCCCC(=O)Nc2ccccc2)cc1 | 438 µM | 2.5 | Non-toxic | –
23 | O=C(CCCCCC(=O)Nc1ccccc1)Nc1ccccc1 | – | – | Non-toxic | –
